Laboratory results from patent US20160303141A1, “CORTEXOLONE 17alpha-PROPIONATE FOR USE IN THE TREATMENT OF SKIN WOUNDS AND/OR ATROPHIC SKIN DISORDERS” (CASSIOPEA S.P.A., priority 2013, published 2016).

Key:
[1] = tested on: Adult human dermal fibroblasts (HDF); assay: In-vitro fibroblast proliferation (BrdU incorporation); format: cell-based; details: for Fibroblast proliferation (Δ% vs. control): Table 2 summary; for proliferative stimulating effect (in words): same test and conditions as Example 1; for Δ % vs. control (proliferation) / Absorbance ± SD Treated: 72 h; for Absorbance ± SD Treated: BrdU, 450 nm
Method: Fibroblast proliferation: Adult human dermal fibroblasts (HDF) were appropriately grown, and were employed between 2nd and 6th passage. […] Twenty-four hours before end of incubation, the cells were labelled with Bromo deoxyuridine (BrdU, 10 μL/well) and its incorporation into DNA was evaluated measuring the absorbance of the samples in an ELISA reader at 450 nm. The proliferation rate of the fibroblasts was evaluated on the increase of the absorbance of the samples.

[2] = tested on: testosterone propionate (TP) response; assay: Local antiandrogenic activity, flank organ test in hamster; format: in vivo; details: for Percent inhibition of testosterone propionate (TP) response: topical on flank organ; for Mean inhibition (%): mean over daily doses 100, 200, 400 μg + 4 μg TP
[3] = tested on: Adult human dermal fibroblasts (HDF); assay: In-vitro effect on synthesis of type I procollagen (PIP ELISA); format: cell-based; details: for Procollagen I Synthesis (Δ% vs. control): Table 2 summary; for effect on synthesis of type I procollagen (in words): same test and conditions as Example 4; for Δ % vs. control (PIP) / PIP concentration: 48 h; for PIP concentration: supernatant
Method: Adult human dermal fibroblasts (HDF) were appropriately grown, and were employed between 2nd and 4th passage. […] After the incubation the supernatant were collected and dosed for the terminal peptide of type I procollagen (PIP) with ELISA kit. The measurement of PIP concentration in the culture medium is representative for the production of collagen type I. The results of type I procollagen concentration (PIP) are reported in the Table 6 below: […]

[4] = tested on: Adult human dermal fibroblasts (HDF); assay: In-vitro effect on extra-cellular protein synthesis (Bradford); format: cell-based; details: for Protein synthesis (Δ% vs. control): Table 2 summary; for effect on extracellular protein synthesis (in words): same test and conditions as Example 3; for Δ % vs. control (protein concentration) / Protein concentration Treated: 72 h; for Protein concentration Treated: supernatant
Method: Adult human dermal fibroblasts (HDF) were appropriately grown, and were employed between 2nd and 6th passage. The fibroblasts, plated in a 24-wells plate at the density of 12×10^4 cells/mL (1 mL/well), were incubated for 72 hours with rhEGF (100 nM) as positive control, or with cortexolone 17α-propionate at concentration of 5 μM, 25 μM, 50 μM. After 72 h of incubation the supernatant were mixed with 1 mL of Bradford reagent and incubated for 45 minutes at room temperature. Each sample was then read in a spectrophotometer at 595 nm.

[5] = tested on: Adult human dermal fibroblasts (HDF); assay: In-vitro fibroblast migration (image density); format: cell-based; details: for Image density 6 h: 6 h after insert removal; for Image density 24 h: 24 h after insert removal; for Image density t0: immediately after insert removal; for Δ (%) vs. vehicle (migration): increase t0-24 h
Method: Fibroblast migration: Adult human dermal fibroblasts (HDF) were appropriately grown, and were employed between 2nd and 6th passage. […] After incubation the culture-insert was removed and the cells were maintained in culture for further 24 hours. Immediately after insert removal, and at interval of 6 and 24 h, the plates were photographed by Digital Microscope Eyepiece. The entity of cell migration was measured using image analyzing software Image J, and was expressed as image density.

cutaneous wounds = assay: In vivo wound healing activity, repTOP mitoIRE mouse model; details: 250 mg/mouse topical
Method: The wound healing activity of the cortexolone 17α-propionate on cutaneous wounds was evaluated in an in vivo test foreseeing the use of repTOP™ mitoIRE mouse model. RepTOP™ mitoIRE mice from TOP® S.r.l. are engineered for the ubiquitous and proliferation-regulated expression of luciferase in proliferating tissues by embedding the transgene containing the minimal promoter of Cyclin B2d driving the firefly luciferase gene within HS4 insulator sequences.
Cortexolone 17α-propionate was dissolved in 0.4% (v/v) tween 80 and 0.5% (w/v) carboxymethylcellulose in normal saline.
The test was carried out comparing the wound healing activity of cortexolone 17α-propionate at two different dosages (50 mg/mouse and 250 mg/mouse) versus the vehicle (i.e. 0.4% (v/v) tween 80 and 0.5% (w/v) carboxymethylcellulose in normal saline) and versus a comparator, i.e. Cicatrene® cream (Johnson&Johnson®), a drug product used in wound management and wound healing.
Animal treatments. The repTOP™ mitoIRE mice were shaved by VEET® depilatory cream a day before the treatment. A round full-thickness wound of 0.4 cm^2 area was made through the dorsal skin and the panniculus carnosus muscle of repTOP™ mitoIRE by using skin biopsy devices (HS biopsy punch).
In vivo test. In order to establish the proliferative stimulating activity of cortexolone 17α-propionate, the vehicle (200 μl/mouse), cortexolone 17α-propionate (50 mg/mouse), cortexolone 17α-propionate (250 mg/mouse) and Cicatrene® (200 mg/mouse) were spread topically on the wound of repTOP™ mitoIRE mice (4 mice per group of treatment), immediately after the generation of the round punch. Photon-emission was measured in wound area at the following times: time 0 and 1, 2, 3 and 6 days after the treatment. A representation of the area of wound selected for the measurements is depicted in FIG. 1.
In vivo imaging. […] Photon emission in wound area was measured using the Living Image Software (Caliper™, a Perkin Elmer™ company) and expressed as photon/second/cm^2/steradian (p/s/cm^2/sr). The measurement of wound areas was expressed as cm^2.

[6] = daily dose 100 μg test compound + 4 μg TP
[7] = daily dose 200 μg test compound + 4 μg TP
[8] = daily dose 400 μg test compound + 4 μg TP

Molecule: CCCCC(=O)O[C@]1(C(=O)CO)CC[C@H]2[C@@H]3CCC4=CC(=O)CC[C@]4(C)[C@H]3CC[C@@]21C [Cortexolone 17α-valerate, cortexolone 17α-valerate]
- Fibroblast proliferation (Δ% vs. control) ([1]; 50 μM): −33.8%
- proliferative stimulating effect (in words) [1]: did not show any proliferative stimulating effect
- Percent inhibition of testosterone propionate (TP) response [2, 6]: 66%
- Percent inhibition of testosterone propionate (TP) response [2, 7]: 65%
- Percent inhibition of testosterone propionate (TP) response [2, 8]: 73%
- Mean inhibition (%) [2]: 68%
- Procollagen I Synthesis (Δ% vs. control) ([3]; 50 μM): −14.6%
- effect on synthesis of type I procollagen (in words) [3]: did not show any effect in increasing the synthesis of type I procollagen
- Protein synthesis (Δ% vs. control) ([4]; 50 μM): −3.8%
- effect on extracellular protein synthesis (in words) [4]: did not show any effect in increasing the extracellular protein synthesis

Molecule: C[C@]12CCC(=O)C=C1CC[C@@H]1[C@@H]2[C@@H](O)C[C@@]2(C)[C@H]1CC[C@]2(O)C(=O)CO [Cortisol, cortisol, reference compound]
- Δ % vs. control (proliferation) ([1]; 50 μM): −56.84%
- Δ % vs. control (PIP) ([3]; 50 μM): −74.94%
- PIP concentration ([3]; 50 μM): 259.36 ng/mL
- Increase from t0 − 24 h (image density) ([5]; 50 μM): 34.4
- Image density 6 h ([5]; 50 μM): 22.9 ± 2.7
- Image density 24 h ([5]; 50 μM): 56.6 ± 4.4
- Image density t0 ([5]; 50 μM): 22.2 ± 3.2
- Δ (%) vs. vehicle (migration) ([5]; 50 μM): 27.4%

Molecule: rhEGF: recombinant human Epidermal Growth Factor, known fibroblast proliferation promoter, positive control
- Δ % vs. control (proliferation) ([1]; 100 nM): 49.49%
- Absorbance ± SD Treated ([1]; 100 nM): 2.72 ± 0.22
- Δ % vs. control (protein concentration) ([4]; 100 nM): 49.54%
- Protein concentration Treated ([4]; 100 nM): 0.978 ± 0.074 mg/mL
- Increase from t0 − 24 h (image density) ([5]; 100 nM): 43.6
- Image density 6 h ([5]; 100 nM): 21.6 ± 1.0
- Image density 24 h ([5]; 100 nM): 65.7 ± 4.2
- Image density t0 ([5]; 100 nM): 22.1 ± 2.9
- Δ (%) vs. vehicle (migration) ([5]; 100 nM): 61.5%

Molecule: O=C1O[C@H]([C@@H](O)CO)C(O)=C1O [Vit. C, L-Ascorbic acid]
- Δ % vs. control (PIP) ([3]; 0.2 mM): 260.87%
- PIP concentration ([3]; 0.2 mM): 3735.27 ± 515.52 ng/mL

Molecule: CCCC(=O)OCC(=O)[C@@]1(OC(=O)CCC)CC[C@H]2[C@@H]3CCC4=CC(=O)CC[C@]4(C)[C@H]3CC[C@@]21C [Cortexolone 17α,21-dibutyrate, cortexolone 17α,21-dibutyrate]
- Fibroblast proliferation (Δ% vs. control) ([1]; 50 μM): 9.6%
- proliferative stimulating effect (in words) [1]: did not show any proliferative stimulating effect
- Percent inhibition of testosterone propionate (TP) response [2, 6]: 84%
- Percent inhibition of testosterone propionate (TP) response [2, 7]: 89%
- Percent inhibition of testosterone propionate (TP) response [2, 8]: 97%
- Mean inhibition (%) [2]: 90%
- Procollagen I Synthesis (Δ% vs. control) ([3]; 50 μM): −2.8%
- effect on synthesis of type I procollagen (in words) [3]: did not show any effect in increasing the synthesis of type I procollagen
- Protein synthesis (Δ% vs. control) ([4]; 50 μM): 0.6%
- effect on extracellular protein synthesis (in words) [4]: did not show any effect in increasing the extracellular protein synthesis

Molecule: CCC(=O)O[C@]1(C(=O)CO)CC[C@H]2[C@@H]3CCC4=CC(=O)CC[C@]4(C)[C@H]3CC[C@@]21C [Cortexolone 17α-propionate, cortexolone 17α-propionate]
- time of maximum increase of proliferative cells after administration (cutaneous wounds): 3 days
- mean reduction in wound area (cutaneous wounds; after 3 days from administration): 26%
- increase of photon-emission from wounds with respect to time 0 (cutaneous wounds; time 3 days): 143%
- Δ % vs. control (proliferation) ([1]; 1 μM): −0.95%
- Absorbance ± SD Treated ([1]; 1 μM): 2.06 ± 0.15
- Δ % vs. control (proliferation) ([1]; 5 μM): 6.71%
- Absorbance ± SD Treated ([1]; 5 μM): 2.05 ± 0.24
- Δ % vs. control (proliferation) ([1]; 25 μM): 7.00%
- Absorbance ± SD Treated ([1]; 25 μM): 2.09 ± 0.19
- Δ % vs. control (proliferation) ([1]; 50 μM): 30.98%
- Absorbance ± SD Treated ([1]; 50 μM): 2.48 ± 0.23
- Fibroblast proliferation (Δ% vs. control) ([1]; 50 μM): 31.0%
- Percent inhibition of testosterone propionate (TP) response [2, 6]: 62%
- Percent inhibition of testosterone propionate (TP) response [2, 7]: 69%
- Percent inhibition of testosterone propionate (TP) response [2, 8]: 86%
- Mean inhibition (%) [2]: 72%
- Δ % vs. control (PIP) ([3]; 10 μM): −8.27%
- PIP concentration ([3]; 10 μM): 949.50 ± 149.81 ng/mL
- Δ % vs. control (PIP) ([3]; 50 μM): 199.59%
- PIP concentration ([3]; 50 μM): 3100.98 ± 152.59 ng/mL
- Procollagen I Synthesis (Δ% vs. control) ([3]; 50 μM): 199.6%
- Δ % vs. control (protein concentration) ([4]; 5 μM): 0%
- Protein concentration Treated ([4]; 5 μM): 0.5 ± 0.056 mg/mL
- Δ % vs. control (protein concentration) ([4]; 25 μM): 12.18%
- Protein concentration Treated ([4]; 25 μM): 0.884 ± 0.028 mg/mL
- Δ % vs. control (protein concentration) ([4]; 50 μM): 27.41%
- Protein concentration Treated ([4]; 50 μM): 0.846 ± 0.087 mg/mL
- Protein synthesis (Δ% vs. control) ([4]; 50 μM): 27.4%
- Increase from t0 − 24 h (image density) ([5]; 10 μM): 35.2
- Image density 6 h ([5]; 10 μM): 24.0 ± 2.4
- Image density 24 h ([5]; 10 μM): 54.5 ± 2.5
- Image density t0 ([5]; 10 μM): 19.3 ± 0.8
- Δ (%) vs. vehicle (migration) ([5]; 10 μM): 30.3%
- Increase from t0 − 24 h (image density) ([5]; 50 μM): 44.0
- Image density 6 h ([5]; 50 μM): 25.1 ± 1.2
- Image density 24 h ([5]; 50 μM): 64.1 ± 5.6
- Image density t0 ([5]; 50 μM): 20.1 ± 2.0
- Δ (%) vs. vehicle (migration) ([5]; 50 μM): 62.9%
